# Test results reported in US10385080B2, “STAT6 inhibitors” (Board of Regents, The University of Texas System, priority 2013, dated 2019).
# Target: T1, STAT6 (Homo sapiens, UniProt P42226)
# T1 sequence (P42226 1-847): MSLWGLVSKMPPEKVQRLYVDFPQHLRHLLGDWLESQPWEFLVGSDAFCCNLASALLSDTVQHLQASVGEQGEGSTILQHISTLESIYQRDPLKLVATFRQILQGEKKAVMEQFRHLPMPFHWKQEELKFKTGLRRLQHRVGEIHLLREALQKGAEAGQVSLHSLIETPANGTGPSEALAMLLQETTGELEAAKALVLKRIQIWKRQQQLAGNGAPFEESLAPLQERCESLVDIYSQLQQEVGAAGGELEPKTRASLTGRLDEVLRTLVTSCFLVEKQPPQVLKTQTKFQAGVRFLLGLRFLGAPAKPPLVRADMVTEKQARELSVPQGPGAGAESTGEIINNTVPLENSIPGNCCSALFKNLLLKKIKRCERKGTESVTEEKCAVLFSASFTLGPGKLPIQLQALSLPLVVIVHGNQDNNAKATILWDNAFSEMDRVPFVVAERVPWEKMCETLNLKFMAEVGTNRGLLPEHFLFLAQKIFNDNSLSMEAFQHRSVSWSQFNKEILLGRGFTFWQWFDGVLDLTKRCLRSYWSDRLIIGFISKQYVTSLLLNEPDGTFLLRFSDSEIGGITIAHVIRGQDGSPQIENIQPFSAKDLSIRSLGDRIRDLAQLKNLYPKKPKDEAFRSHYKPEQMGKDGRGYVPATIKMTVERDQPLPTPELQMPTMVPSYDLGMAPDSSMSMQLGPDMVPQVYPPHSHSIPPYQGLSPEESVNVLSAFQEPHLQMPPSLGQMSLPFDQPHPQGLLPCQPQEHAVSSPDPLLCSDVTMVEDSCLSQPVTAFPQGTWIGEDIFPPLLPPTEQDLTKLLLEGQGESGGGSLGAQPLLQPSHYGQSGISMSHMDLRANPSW
# Experiment: Inhibition of IL-4 (and IL-13) stimulated phosphorylation of STAT6 in Beas-2B cells, western blot
# Format: cell-based
# Set-up: endogenous in cells; host or cells: Beas-2B immortalized human airway cells
# Settings: dose response
# Method: Compound PM-241H inhibited the phosphorylation of Tyr641 of STAT6 in Beas-2B cells stimulated with IL-4 and IL-13.
# (§1) Compounds were screened at 5 μM for their ability to inhibit IL-4 stimulated phosphorylation of STAT6 in Beas-2B immortalized human airway cells. Cells were treated with prodrug for 2 hr and then stimulated with IL-4. After 30 min cells were lysed and pSTAT6 and total STAT6 were measured with western blots (FIG. 7). Without being bound by theory, the inhibition observed is consistent with compounds entering cells, being stripped of the POM groups, binding to the SH2 domain of STAT6, blocking binding to IL-4Rα and preventing phosphorylation of Tyr641. […] Compounds resulting in <10% residual phosphorylation were taken on to MTS cytotoxicity assays and dose response assays. (FIG. 8). The cyclic aromatic amides PM-63I, PM-80I, PM-81I, and PM-86I were very potent with IC50 values from 50-500 nM. […] With the exception of PM-43I, concentrations that inhibit STAT6 phosphorylation are 20-100 fold lower than those resulting in toxicity. STAT6 inhibitors were assayed for their ability to inhibit the phosphorylation of STAT 1, STAT 3, STAT 5, Akt, and FAK, all processes that depend on SH2 domain-phosphotyrosine interactions (Mandal, P. K. et al. 2011). Serum starved MDA-MB-468 breast cancer cells were treated with STAT6 inhibitors for 2 hr and then were stimulated with EGF (See FIGS. 9A and 9B).
# Cells or lungs were isolated and lysed in RIPA buffer (9806S; Cell Signaling, Danvers, Mass.), protein was quantified using BCA Protein Assay Reagent (23227; Thermo Fisher Scientific, Rockford, Ill.) and denatured in Laemmli sample buffer (161-0737; Bio-Rad, Hercules, Calif.) according to manufacturer's protocol. Proteins were separated on SDS-Page gels were hand-poured using a standard electrophoresis unit (Bio-Rad, Hecules, Calif.) and transferred to a membrane using iBlot Gel Transfer Device (IB 1001; Invitrogen, Grand Island, N.Y.). Membranes were blocked in 2% FBS PBST and probed for c-Src, p-c-Src, pErk1/2, Erk1/2, p STAT6, STAT6, pSTAT3, STAT3, pSTAT5, STAT5, Shp-1, and β-actin. Signal was detected with a ChemiDoc XRS+ system (BioRad; Hercules, Calif.).
row,Compound,IC50 [nM]
1,C/C(=C\C(=O)N[C@H](C(=O)N1CCC[C@H]1C(=O)N1CCc2ccccc21)C(C)(C)C)c1ccc(C(F)(F)P(=O)(OCOC(=O)C(C)(C)C)OCOC(=O)C(C)(C)C)cc1 [PM-63I],50 to 500
2,C/C(=C\C(=O)N[C@H](C(=O)N1CCC[C@H]1C(=O)N1CCCCC1)C(C)(C)C)c1ccc(C(F)(F)P(=O)(OCOC(=O)C(C)(C)C)OCOC(=O)C(C)(C)C)cc1 [PM-74I],50
3,C/C(=C\C(=O)N[C@H](C(=O)N1CCC[C@H]1C(=O)N1CCCCc2ccccc21)C(C)(C)C)c1ccc(C(F)(F)P(=O)(OCOC(=O)C(C)(C)C)OCOC(=O)C(C)(C)C)cc1 [PM-80I],50 to 500
4,C/C(=C\C(=O)N[C@H](C(=O)N1CCC[C@H]1C(=O)N1CCc2ccccc2C1)C(C)(C)C)c1ccc(C(F)(F)P(=O)(OCOC(=O)C(C)(C)C)OCOC(=O)C(C)(C)C)cc1 [PM-81I],50 to 500
5,C/C(=C\C(=O)N[C@H](C(=O)N1CCC[C@H]1C(=O)N1CCCc2ccccc21)C(C)(C)C)c1ccc(C(F)(F)P(=O)(OCOC(=O)C(C)(C)C)OCOC(=O)C(C)(C)C)cc1 [PM-86I],50 to 500

# System: asthma-related parameters
# Experiment: Dose effect on asthma-related parameters in fungus-challenged mice
# Format: in vivo
# Settings: dose of 5 micrograms
# Method: (§2) The issue of toxicity was addressed with the newer synthetic STAT6 peptidomimetic agents 86i and 43i in two ways. First, the inventors determined the effect of each inhibitor on asthma-related parameters in fungus-challenged mice. […] Second, the weights of mice were measured during challenge with the different doses of both STAT6 inhibitors.
# Mice were challenged intranasally with a clinical isolate of 4×10^5 A. niger conidia every two days for a total of 8 challenges and treated with 50 μg of the indicated β-agonist, liposome vehicle (DLPC) and/or PM-242H (5 or 50 μg) intranasally as indicated and the allergic airway disease phenotype was determined according to previously described methods (Porter, P. et al. 2009).
# Allergic airway disease was assessed as previously described (Porter, P. et al. 2009). Changes in respiratory system resistance (RRS) in response to intravenous acetylcholine challenge, bronchoalveolar lavage (BAL) fluid differential counts, and analysis of lung IL-4, IL-17A and IFN-γ producing cells by enzyme linked immunocell spot assay (ELISpot) were performed as previously described (Lee, S. H. et al. 2003; Polikepahad, S. et al. 2010).
Compound,inhibition of airway hyperresponsiveness,inhibition of airway inflammation,inhibition of lung IL-4 responses
C/C(=C\C(=O)N[C@H](C(=O)N1CCC[C@H]1C(=O)N1CCCc2ccccc21)C(C)(C)C)c1ccc(C(F)(F)P(=O)(OCOC(=O)C(C)(C)C)OCOC(=O)C(C)(C)C)cc1 [PM-86I],intermediately effective,maximally effective,maximally effective

# Same assay, conditions: dose of 50 micrograms
row,Compound,inhibition of airway hyperresponsiveness
1,C/C(=C\C(=O)N[C@H](C(=O)N1CCC[C@H]1C(=O)N1CCCc2ccccc21)C(C)(C)C)c1ccc(C(F)(F)P(=O)(OCOC(=O)C(C)(C)C)OCOC(=O)C(C)(C)C)cc1 [PM-86I],maximally effective

# Same assay, conditions: dose of 50 micrograms; to sham-treated levels
row,Compound,lung inflammation and IL-4 responses
1,C/C(=C\C(=O)N[C@H](C(=O)N1CCC[C@H]1C(=O)N1CCCc2ccccc21)C(C)(C)C)c1ccc(C(F)(F)P(=O)(OCOC(=O)C(C)(C)C)OCOC(=O)C(C)(C)C)cc1 [PM-86I],rebound

# Target: T1, STAT6
# Experiment: Fluorescence polarization competition with FAM-labelled IL-4Rα Tyr631 phosphopeptide for binding to STAT6
# Settings: other phosphate-containing STAT6 inhibitors; competition with FAM-Ala-pTyr-Lys-Pro-Phe-Gln-Asp-Leu-Ile-NH2
# Source text: The following structures as phosphate esters were synthesized and assayed them for the ability to compete with FAM-Ala-pTyr-Lys-Pro-Phe-Gln-Asp-Leu-Ile-NH2, derived from Tyr631 of IL-4Rα, for binding to STAT6 using fluorescence polarization (FAM=5-carboxyfluorescein). The fluorescence polarization methodology was adapted from Wu et al., 1997, which is incorporated herein by reference. Amide bond replacements, cyclic amides, and cyclic lactams in the central part of the compound were explored.
row,Compound,IC50 [nM]
1,C/C(=C\C(=O)N[C@H](C(=O)N[C@@H](C)C(=O)N(C)c1ccccc1)C(C)(C)C)c1ccc(OP(=O)(O)O)cc1 [PM-26I],120 ± 16
2,C/C(=C\C(=O)N[C@H](C(=O)N1CCC[C@H]1C(=O)N(C)C1CCCCC1)C(C)(C)C)c1ccc(OP(=O)(O)O)cc1 [PM-70I],230 ± 140
3,C/C(=C\C(=O)N[C@H](C(=O)N1CCC[C@H]1C(=O)N(c1ccccc1)c1ccc(I)cc1)C(C)(C)C)c1ccc(OP(=O)(O)O)cc1 [PM-286H],53 ± 10
4,CC(C)(C)[C@H](NC(=O)/C=C/c1ccc(OP(=O)(O)O)cc1)C(=O)N1CCC[C@H]1C(=O)N(c1ccccc1)c1ccc(I)cc1 [PM-287H],73 ± 10
5,CC(C)(C)[C@H](NC(=O)/C=C/c1ccc(OP(=O)(O)O)cc1)C(=O)N1CCC[C@H]1C(=O)N(c1ccccc1)c1ccccc1 [PM-300H-A],120 ± 40
6,C/C(=C\C(=O)N[C@H](C(=O)N1CCC[C@H]1C(=O)N(c1ccccc1)c1ccccc1)C(C)(C)C)c1ccc(OP(=O)(O)O)cc1 [PM-300H-B],89 ± 10
7,C/C(=C\C(=O)N[C@H](C(=O)N1CCC[C@H]1C(=O)N(C)c1ccccc1)C(C)(C)C)c1ccc(OP(=O)(O)O)cc1 [PM-301H],117 ± 30
8,C/C(=C\C(=O)N[C@H](C(=O)N1CCC[C@H]1C(=O)Nc1ccccc1)C(C)(C)C)c1ccc(OP(=O)(O)O)cc1 [PM-302H-A],268 ± 70
9,CCN(CC)C(=O)[C@@H]1CCCN1C(=O)[C@@H](NC(=O)/C=C(\C)c1ccc(OP(=O)(O)O)cc1)C(C)(C)C [PM-302H-B],377 ± 90

# Same assay, conditions: select phosphate-containing STAT6 inhibitors; competition with FAM-Ala-pTyr-Lys-Pro-Phe-Gln-Asp-Leu-Ile-NH2
row,Compound,IC50 [nM]
1,C/C(=C\C(=O)N[C@H](C(=O)N1CCC[C@H]1/C=C/CCc1ccccc1)C(C)(C)C)c1ccc(OP(=O)(O)O)cc1 [PM-9I],771 ± 290
2,C/C(=C\C(=O)N[C@H](C(=O)N1CCC[C@H]1CCCCc1ccccc1)C(C)(C)C)c1ccc(OP(=O)(O)O)cc1 [PM-10I],2090 ± 930
3,C/C(=C\C(=O)N[C@H]1CCCCN(CC(=O)N(C)c2ccccc2)C1=O)c1ccc(OP(=O)(O)O)cc1 [PM-28I],630 ± 13
4,C/C(=C\C(=O)NC1CCc2cccc3c2N(C1=O)[C@H](C(=O)N(C)c1ccccc1)C3)c1ccc(OP(=O)(O)O)cc1 (some centres unmarked) [PM-34I],280 ± 60
5,C/C(=C\C(=O)N[C@H](C(=O)N1CCC[C@H]1C(=O)N1CCc2ccccc21)C(C)(C)C)c1ccc(OP(=O)(O)O)cc1 [PM-59I],260 ± 90
6,C/C(=C\C(=O)N[C@H](C(=O)NC1CCCCN(c2ccccc2)C1=O)C(C)(C)C)c1ccc(OP(=O)(O)O)cc1 (some centres unmarked) [PM-60I],2330 ± 500
7,C/C(=C\C(=O)N[C@H](C(=O)N1CCC[C@H]1C(=O)N1CCCCC1)C(C)(C)C)c1ccc(OP(=O)(O)O)cc1 [PM-67I-A],370 ± 90
8,C/C(=C\C(=O)N[C@H](C(=O)N1CCC[C@H]1C(=O)N1CCOCC1)C(C)(C)C)c1ccc(OP(=O)(O)O)cc1 [PM-67I-B],103 ± 50
9,C/C(=C\C(=O)N[C@H](C(=O)N1CCC[C@H]1C(=O)N1CCN(C)CC1)C(C)(C)C)c1ccc(OP(=O)(O)O)cc1 [PM-67I-C],1900 ± 840
10,C/C(=C\C(=O)N[C@H](C(=O)N1CCC[C@H]1C(=O)N1CCc2ccccc2C1)C(C)(C)C)c1ccc(OP(=O)(O)O)cc1 [PM-71-A],50 ± 40
11,C/C(=C\C(=O)N[C@H](C(=O)N1CCC[C@H]1C(=O)N1CCCc2ccccc21)C(C)(C)C)c1ccc(OP(=O)(O)O)cc1 [PM-87I],240 ± 130

# System: not listed separately
# Experiment: Toxicity: weights of mice during challenge with different doses
# Format: in vivo
# Settings: different doses
# Method: as §2
row,Compound,toxicity by weight gain over the period of drug administration
1,C/C(=C\C(=O)N[C@H](C(=O)N1CCC[C@H]1C(=O)N1CCCc2ccccc21)C(C)(C)C)c1ccc(C(F)(F)P(=O)(OCOC(=O)C(C)(C)C)OCOC(=O)C(C)(C)C)cc1 [PM-86I],no toxicity

# System: Stat5
# Experiment: Selectivity: Stat5 phosphorylation in EGF-stimulated MDA-MB-468 cells
# Format: cell-based
# Settings: serum starved MDA-MB-468 cells, 2 hr
# Method: as §1
row,Compound,cross reactivity with Stat5
1,C/C(=C\C(=O)N[C@H](C(=O)N1CCC[C@H]1C(=O)N1CCc2ccccc21)C(C)(C)C)c1ccc(C(F)(F)P(=O)(OCOC(=O)C(C)(C)C)OCOC(=O)C(C)(C)C)cc1 [PM-63I],significant cross reactivity
